Assay results reported in patent US6256527A, “Method for determining oxygen concentration” (Nycomed Imaging AS, priority 1995, dated 2001).

Experiments:
Assay type in all cases: physicochemical
[1] = ESR linewidth of trityl radicals (synthesis examples); conditions: singlet
[2] = Relaxivity from NMRD profiles in water, plasma and blood; conditions: for Relaxivity: water
Method: (§1) The following four water soluble, single ESR line trityls were investigated by NMRD, Dynamic Nuclear Polarisation (DNP) and ESR (Examples 1-4).
(§2) The relaxivity and DNP enhancement data were measured in water, plasma and blood at 23° C. and 37° C. The results are set out in Tables 1 and 2.

[3] = DNP (Overhauser) enhancement and DNP-curve relaxivity at infinite concentration and power; conditions: for A. (enhancement at infinite concentration and power): water
Source text: The calibration data are generated by determining Overhauser enhancement values for the radical in the selected body fluid, at the selected temperature and at a range of oxygen (and preferably also radical) concentrations. The intrinsic esr relaxation times for the radical can be determined, under the same conditions, using a conventional esr spectrometer equipped with a temperature controller, with oxygen concentration being determined using the method of Ravin et al J. Appl. Physiol. 18:784-790(1964), a method known to produce accurate and reproducible results.
as §1, §2

[4] = Electron spin relaxation rates (radical concentration dependent) from CW ESR spectra and DNP data
Method: as §1
Electron spin relaxation rates were measured by analysis of CW ESR spectra and DNP data at 23° C. and 37° C. in water, isotonic saline, plasma and blood for the deuterated hydroxy trityl and in water and isotonic saline for the perdeuterated and symmetric trityl.

[5] = Oxygen sensitivity at 260 MHz by ESR and DNP in water and blood; conditions: for Lorentzian line broadening by oxygen: 260 MHz
Method: The oxygen sensitivity of the deuterated hydroxy trityl was examined at 260 MHz in water and blood at 23° C. and 37° C. by ESR and DNP. The desired oxygen partial pressures were obtained in a simple shaking tonometer. The sample of 1-2 ml volume was shaken with a water saturated gas mixture flowing slowly above the sample for 5 min. The sample and gas was in a water bath maintaining the temperature. The gas mixtures were of high purity, chemically analysed. The Lorentzian line broadenings are 511 and 369 mG/mMo2 in water at 37° C. and 23° C. respectively and 329 mG/mMo2 in blood at 23° C.

[6] = Overhauser enhancement of trityl radicals (synthesis examples)
[7] = Stability measurements: half life without exclusion of air
[8] = Oximetric calibration by X-band ESR (9 GHz), oxygen broadening; conditions: plasma, 37° C., X-band 9 GHz
Method: Oximetric calibrations were made for the perdeuterated trityl and the non-deuterated hydroxy trityl in water and plasma at 37° C. with ESR in the X-band at 9 GHz. The experiment was performed on a Varian X-band spectrometer with temperature controller. A thermocouple was placed near the microwave cavity for accurate determination of the temperature. The samples were placed in thin wall teflon capillaries for rapid equilibration with a flowing gas mixture. A Sensormedics Oxygen Analyzer OM-11 was used to determine the oxygen percentage in the flowing gas. The gas pressure for temperature control and oxygenation was maintained at 20 psi. The linewidth and the saturation of the electron spin resonance was measured. Fremys salt was chosen as a B1 calibration standard and a conversion factor of 38.6±0.2 mG/mW was obtained.
The results are shown in FIGS. 2 and 3 which give the linewidth as a function of oxygen concentration. The oxygen broadening of the perdeuterated trityl in plasma at 37° C. is 583 mG/mMo2 .

[9] = water (isotonic saline), 23° C.
[10] = water (isotonic saline), 37° C.

For “Bis(8-ethoxycarbonyl-2,2,6,6-tetra(hydroxymethyl)benzo[1,2-d: 4,5-d']bis(1,3)dithiol-4-yl)-mono(8-ethoxycarbonyl-2,2,6,6-tetramethylbenzo[1,2-d:4,5-d']-bis(1,3)dioxol-4-yl))methyl [Example 26]”, the ESR Line width ([1]; H2 O, 200 G) was 433 mg.

“Tris(8-carboxy-2,2,6,6-tetrahydroxymethylbenzo[1,2-d: 4,5-d']bis(1,3)dithiole-4-yl)methyl sodium salt [Example 14]” gave an ESR Line width ([1]; 1.5 mM in H2 O, 100 G) of 100 mg.

In the case of “Bis-(8-sodium carboxylate-2,2,6,6-tetrakis-(hydroxy-^2 H2 -methyl)-benzo[1,2-d:4,5-d']-bis(1,3) dithiole-4-yl)-mono-(8-sodium carboxylate-2,2,6,6-tetramethylbenzo [1,2-d:4,5-d']-bis(1,3) dioxole-4-yl)methyl [deuterated hydroxy trityl]”, the “Relaxivity at 400kHz” value ([2]; blood, 23° C.) is reported as 0.53 mM⁻¹ s⁻¹, the “Relaxivity at 400kHz” value ([2]; blood, 37° C.) is reported as 0.44 mM⁻¹ s⁻¹ and the “Relaxivity at 400kHz” value ([2]; plasma, 23° C.) is reported as 0.48 mM⁻¹ s⁻¹. For the same substance, the “Relaxivity at 400kHz” value ([2]; plasma, 37° C.) was 0.45 mM⁻¹ s⁻¹, the Relaxivity ([2]; 23° C.) was 0.26 mM⁻¹ s⁻¹ and the Relaxivity ([2]; 37° C.) was 0.20 mM⁻¹ s⁻¹. The “T1 i.e. proton relaxivity” value ([3]; blood sample, 37° C.) was 0.44 mM⁻¹ s⁻¹, the “maximum Overhauser enhancement (i.e. at infinite VHF power and infinite radical concentration)” value ([3]; blood sample, 37° C.) was 192 and the “A. (infinite concentration and power), DNP enhancement” value ([3]; blood, 37° C.) was 192. The “Relaxivity at infinite concentration and power” value ([3]; blood, 37° C.) was 0.44 mM⁻¹ s⁻¹, the “A. (infinite concentration and power), DNP enhancement” value ([3]; plasma, 37° C.) was 231 and the “Relaxivity at infinite concentration and power” value ([3]; plasma, 37° C.) was 0.32 mM⁻¹ s⁻¹. For the same substance, the “A. (enhancement at infinite concentration and power)” value [3] was 278, the “2(3γe T1e)^-1, concentration dependent relaxation rate (peak-to-peak)” value ([4]; blood, 37° C.) was 3.6 ± 0.5 mg/mM and the “2(3γe T2e)^-1, concentration dependent relaxation rate (peak-to-peak)” value ([4]; blood, 37° C.) was 21.5 ± 0.5 mg/mM. For the same substance, the “2(3γe T1e)^-1, concentration dependent relaxation rate (peak-to-peak)” value ([4]; plasma, 37° C.) was 2.7 ± 0.5 mg/mM, the “2(3γe T2e)^-1, concentration dependent relaxation rate (peak-to-peak)” value ([4]; plasma, 37° C.) was 9.8 ± 0.5 mg/mM and the “2(3γe T1e)^-1, concentration dependent relaxation rate (peak-to-peak)” value [4, 9] was 2.6 ± 0.1 mg/mM. The “2(3γe T2e)^-1, concentration dependent relaxation rate (peak-to-peak)” value [4, 9] was 11.1 ± 0.5 mg/mM, the “2(3γe T1e)^-1, concentration dependent relaxation rate (peak-to-peak)” value [4, 10] was 2.8 ± 0.2 mg/mM and the “2(3γe T2e)^-1, concentration dependent relaxation rate (peak-to-peak)” value [4, 10] was 8.0 ± 0.2 mg/mM. The “2(3γe T1e)^-1, relaxation rate as a function of oxygen concentration (peak-to-peak)” value (“2(3γe T1e)^-1, relaxation rate” for short) ([5]; blood, 23° C.) was 250 mg/mM, the “2(3γe T2e)^-1, relaxation rate as a function of oxygen concentration (peak-to-peak)” value (shortened to “2(3γe T2e)^-1, relaxation rate”) ([5]; blood, 23° C.) was 329 mg/mM and the “(γe T1e +L T2e)^-1, square root of slope of the inverse DNP curve: constant term” value ([5]; blood, 23° C.) was 12.9 mg/mM. The “Lorentzian line broadening by oxygen” value ([5]; blood, 23° C.) was 329 mG/mMo2, the “2(3γe T1e)^-1, relaxation rate” value ([5]; blood, 37° C.) was 330 mg/mM and the “2(3γe T2e)^-1, relaxation rate” value ([5]; blood, 37° C.) was 428 mg/mM. The “(γe T1e +L T2e)^-1, square root of slope of the inverse DNP curve: constant term” value ([5]; blood, 37° C.) was 15.0 mg/mM, the “2(3γe T1e)^-1, relaxation rate” value ([5]; water, 23° C.) was 301 mg/mM and the “2(3γe T2e)^-1, relaxation rate” value ([5]; water, 23° C.) was 369 mg/mM. The “(γe T1e +L T2e)^-1, square root of slope of the inverse DNP curve: constant term” value ([5]; water, 23° C.) was 13.4 mg/mM, the “Lorentzian line broadening by oxygen” value ([5]; water, 23° C.) was 369 mG/mMo2 and the “2(3γe T1e)^-1, relaxation rate” value ([5]; water, 37° C.) was 398 mg/mM. For the same substance, the “2(3γe T2e)^-1, relaxation rate” value ([5]; water, 37° C.) was 511 mg/mM, the “(γe T1e +L T2e)^-1, square root of slope of the inverse DNP curve: constant term” value ([5]; water, 37° C.) was 14.2 mg/mM and the “Lorentzian line broadening by oxygen” value ([5]; water, 37° C.) was 511 mG/mMo2.

“Bis-(8-potassium carboxylate-2,2,6,6-tetramethylbenzo [1,2-d:4 5-d']-bis(1,3)dithiol-4-yl)-mono-(8-potassium carboxylate-2,2,6,6-tetramethylbenzo[1,2-d:4,5-d']-bis (1,3)dioxol-4-yl)methyl [Example 20]” showed an ESR Line width ([1]; H2 O, 200 G) of 105 mg and an Overhauser enhancement ([6]; H2 O, 6.9 mM, 0.012 W microwave power) of 219.

Work on “Bis-(8-ethoxycarbonyl-2,2,6,6-tetramethylbenzo[1,2-d: 4,5-d']-bis(1,3)dithiole-4-yl)-mono-(8-ethoxycarbonyl-2,2,6,6-tetramethylbenzo[1,2-d:4,5-d']-bis(1,3)dioxol-4-yl)methyl [Example 19]” yielded an ESR Line width ([1]; THF, 200 G) of 325 mg, an Overhauser enhancement ([6]; THF, 2.1 mM, 4 W microwave power) of 156 and a Half life ([7]; in acetonitrile without exclusion of air) of 83.33 days.

“Bis(8-carboxy-2,2,6,6-tetra(hydroxymethyl)benzo[2-d: 4,5-d']bis(1,3)dithiol-4-yl)-mono(8-carboxy-2,2,6,6-tetramethylbenzo[2-d: 4,5-d']-bis(1,3)dioxol-4-yl)) methyl sodium salt [Example 27]” gave an ESR Line width ([1]; 3.4 mM in H2 O, 200 G) of 120 mg, an Overhauser enhancement ([6]; 3.4 mM in H2 O, 5 W microwave power) of 164 and a Half life ([7]; in water without exclusion of air) of 5 days.

With “Bis-(8-sodium carboxylate-2,2,6,6-tetrakis-(^2 H3 methyl)-benzo[1,2-d:4,5-d']-bis(1,3)-dithiole-4-yl)-mono-(8-sodium carboxylate-2,2,6,6-tetrakis-(^2 H3 -methyl)-benzo[1,2-d:4,5-d']-bis(1,3)-dioxole-4-yl) methyl [perdeuterated trityl]” the Relaxivity ([2]; 23° C.) was 0.19 mM⁻¹ s⁻¹, the Relaxivity ([2]; 37° C.) was 0.14 mM⁻¹ s⁻¹ and the “A. (enhancement at infinite concentration and power)” value [3] was 267. For the same substance, the “2(3γe T1e)^-1, concentration dependent relaxation rate (peak-to-peak)” value [4, 9] was 10.6 ± 0.8 mg/mM, the “2(3γe T2e)^-1, concentration dependent relaxation rate (peak-to-peak)” value [4, 9] was 24.3 ± 0.8 mg/mM and the “2(3γe T1e)^-1, concentration dependent relaxation rate (peak-to-peak)” value [4, 10] was 12.9 ± 0.3 mg/mM. For the same substance, the “2(3γe T2e)^-1, concentration dependent relaxation rate (peak-to-peak)” value [4, 10] was 28.2 ± 1.2 mg/mM and the oxygen broadening [8] was 583 mG/mMo2.
